Measured values as given in patent US12187709B2 (Genentech, Inc., priority 2021, dated 2025).

What was measured:
[1] = molecular target: Human Cbl-b (residues 40-426) (Homo sapiens (Human), UniProt Q13191); assay: Cbl-b SPR assay; assay type: binding; details: for Fold of selectivity: C-cbl SPR Kd vs Cbl-b SPR Kd; for Kd: SPR, 20° C.
In short: (§1)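 Values derive from a 1:1 model fitted to multicycle kinetics on captured protein (1300-1500 RU), using six 2-fold concentrations, 60 s contact and dissociation of 120-1200 s. In the chaser format, kd comes from a single-exponential fit of % site occupancy over time.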

c-Cbl (residues 47-435) = c-Cbl (residues 47-435) (Homo sapiens (Human), UniProt P22681); assay: c-Cbl SPR assay; assay type: binding; details: 20° C.
Sequence of c-Cbl (residues 47-435) (P22681 47-435): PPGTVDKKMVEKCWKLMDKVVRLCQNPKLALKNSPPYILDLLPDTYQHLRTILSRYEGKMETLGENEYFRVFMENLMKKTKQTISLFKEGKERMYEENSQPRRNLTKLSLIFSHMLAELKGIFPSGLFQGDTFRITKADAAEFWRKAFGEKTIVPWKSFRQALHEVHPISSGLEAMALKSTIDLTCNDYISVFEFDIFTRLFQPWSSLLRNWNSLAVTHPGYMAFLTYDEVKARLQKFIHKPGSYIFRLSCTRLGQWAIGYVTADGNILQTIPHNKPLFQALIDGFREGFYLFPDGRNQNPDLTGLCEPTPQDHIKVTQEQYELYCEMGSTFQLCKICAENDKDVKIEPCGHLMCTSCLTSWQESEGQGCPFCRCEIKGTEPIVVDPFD
In short: as §1

c-Cbl = c-Cbl (Homo sapiens (Human), UniProt P22681); assay: C-Cbl LCK Ub TR-FRET assay (C-cbl Lck HTRF); assay type: biochemical
Sequence of c-Cbl (P22681 47-435): as above
In short: (§2)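 Detection reagents added, brief spin, 20 min RT. IC50 fit normalized to no-LCK (low) and DMSO (high) controls.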

Cbl-b = Cbl-b (Homo sapiens (Human), UniProt Q13191); assay: Cbl-b LCK Ub TR-FRET assay (Cbl-b Lck HTRF); assay type: biochemical; details: for IC50: Cbl-b LCK Ub TR-FRET; for fold-selectivity (Cbl-b over C-cbl): ratio C-cbl Lck HTRF IC50 / Cbl-b Lck HTRF IC50
Sequence of Cbl-b (Q13191 40-426): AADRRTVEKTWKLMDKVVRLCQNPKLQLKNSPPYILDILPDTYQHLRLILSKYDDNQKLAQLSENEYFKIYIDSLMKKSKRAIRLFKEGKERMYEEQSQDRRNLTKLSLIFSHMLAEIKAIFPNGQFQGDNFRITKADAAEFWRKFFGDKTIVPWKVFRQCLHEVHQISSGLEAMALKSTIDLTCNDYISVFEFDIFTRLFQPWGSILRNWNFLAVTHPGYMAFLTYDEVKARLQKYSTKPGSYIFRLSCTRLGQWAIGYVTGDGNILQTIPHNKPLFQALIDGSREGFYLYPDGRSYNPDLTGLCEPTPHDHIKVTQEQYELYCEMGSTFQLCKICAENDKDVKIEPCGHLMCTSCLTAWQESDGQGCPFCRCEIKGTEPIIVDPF
In short: as §2

Sequence of Human Cbl-b (residues 40-426) (Q13191 40-426): as above

Compound | Fold of selectivity [1] | Kd [1] | Kd (c-Cbl (residues 47-435)) | IC50 (c-Cbl) | IC50 (Cbl-b) | fold-selectivity (Cbl-b over C-cbl) (Cbl-b)
CC(C)O[C@H]1C[C@@](c2cccc(N3Cc4c(cc(CNC5(C)CCC5)cc4C(F)(F)F)C3=O)c2)(c2nncn2C)C1 [Compound 222, 2-(3-((1s,3s)-3-isopropoxy-1-(4-methyl-4H-1,2,4-triazol-3-yl)cyclobutyl)phenyl)-6-(((1-methylcyclobutyl)amino)methyl)-4-(trifluoromethyl)isoindolin-1-one] | 13× | 14 nM | 200 nM | 270 nM | 64 nM | 4.2x
CO[C@H]1C[C@@](c2cc(NC(C)C)cc(N3Cc4c(cc(CNC5(C)CCC5)cc4C(F)(F)F)C3=O)c2)(c2nncn2C)C1 [Compound 223, 2-(3-(isopropylamino)-5-((1s,3s)-3-methoxy-1-(4-methyl-4H-1,2,4-triazol-3-yl)cyclobutyl)phenyl)-6-(((1-methylcyclobutyl)amino)methyl)-4-(trifluoromethyl)isoindolin-1-one] | 7.5× | 2.9 nM | 22 nM | 21 nM | 15 nM | 1.4x
CO[C@H]1C[C@@](c2cc(NCCC#N)cc(N3Cc4c(cc(CNC5(C)CCC5)cc4C(F)(F)F)C3=O)c2)(c2nncn2C)C1 [Compound 224] | 10× | 9.5 nM | 100 nM | 100 nM | 20 nM | 5.0x
CO[C@H]1C[C@](c2cc(C3CC3)cc(N3Cc4c(cc(CNC5(C)CCC5)cc4C(F)(F)F)C3=O)c2)(c2nncn2C)C1 [Compound 226, 2-(3-cyclopropyl-5-((1r,3r)-3-methoxy-1-(4-methyl-4H-1,2,4-triazol-3-yl)cyclobutyl)phenyl)-6-(((1-methylcyclobutyl)amino)methyl)-4-(trifluoromethyl)isoindolin-1-one] | 3.2× | 1.3 nM | 4.2 nM | 10 nM | 11 nM | 0.99x
CCNc1cc(N2Cc3c(cc(CNC4(C)CCC4)cc3C(F)(F)F)C2=O)cc([C@]2(c3nncn3C)C[C@@H](OC)C2)c1 [Compound 227, 2-(3-(ethylamino)-5-((1s,3s)-3-methoxy-1-(4-methyl-4H-1,2,4-triazol-3-yl)cyclobutyl)phenyl)-6-(((1-methylcyclobutyl)amino)methyl)-4-(trifluoromethyl)isoindolin-1-one] | 6.5× | 1.7 nM | 11 nM | 16 nM | 10 nM | 1.6x
COC1CC2(C1)CC(c1cccc(N3Cc4c(cc(CNC5(C)CCC5)cc4C(F)(F)F)C3=O)c1)(c1nncn1C)C2 (stereo not drawn) [Compound 229, 2-(3-(6-methoxy-2-(4-methyl-4H-1,2,4-triazol-3-yl)spiro[3.3]heptan-2-yl)phenyl)-6-(((1-methylcyclobutyl)amino)methyl)-4-(trifluoromethyl)isoindolin-1-one] | 7.0× | 110 nM | 760 nM | 1400 nM | 230 nM | 5.9x
CO[C@H]1C[C@](c2cc(C)cc(N3Cc4c(cc(CNC5(C)CCC5)cc4C(F)(F)F)C3=O)c2)(c2nncn2C)C1 [Compound 230, 2-(3-((1r,3r)-3-methoxy-1-(4-methyl-4H-1,2,4-triazol-3-yl)cyclobutyl)-5-methylphenyl)-6-(((1-methylcyclobutyl)amino)methyl)-4-(trifluoromethyl)isoindolin-1-one] | 2.3× | 75 nM | 170 nM | 290 nM | 190 nM | 1.5x
CO[C@H]1C[C@@](c2cc(NC3CC3)cc(N3Cc4c(cc(CNC5(C)CCC5)cc4C(F)(F)F)C3=O)c2)(c2nncn2C)C1 [Compound 231, 2-(3-(cyclopropylamino)-5-((1s,3s)-3-methoxy-1-(4-methyl-4H-1,2,4-triazol-3-yl)cyclobutyl)phenyl)-6-(((1-methylcyclobutyl)amino)methyl)-4-(trifluoromethyl)isoindolin-1-one] | 5.4× | 1.5 nM | 8.1 nM | 17 nM | 11 nM | 1.5x
C=CCNc1cc(N2Cc3c(cc(CNC4(C)CCC4)cc3C(F)(F)F)C2=O)cc([C@]2(c3nncn3C)C[C@H](OC)C2)c1 [Compound 232, 2-(3-(allylamino)-5-((1r,3r)-3-methoxy-1-(4-methyl-4H-1,2,4-triazol-3-yl)cyclobutyl)phenyl)-6-(((1-methylcyclobutyl)amino)methyl)-4-(trifluoromethyl)isoindolin-1-one] | 9.2× | 1.4 nM | 13 nM | 35 nM | 13 nM | 2.6x
CO[C@H]1C[C@](c2cc(NC3COC3)cc(N3Cc4c(cc(CNC5(C)CCC5)cc4C(F)(F)F)C3=O)c2)(c2nncn2C)C1 [Compound 234, 2-(3-((1r,3r)-3-methoxy-1-(4-methyl-4H-1,2,4-triazol-3-yl)cyclobutyl)-5-(oxetan-3-ylamino)phenyl)-6-(((1-methylcyclobutyl)amino)methyl)-4-(trifluoromethyl)isoindolin-1-one] | 10× | 7.4 nM | 76 nM | 140 nM | 25 nM | 5.6x
CCc1cc(N2Cc3c(cc(CNC4(C)CCC4)cc3C(F)(F)F)C2=O)cc([C@]2(c3nncn3C)C[C@@H](OC)C2)c1 [Compound 235, 2-(3-ethyl-5-((1s,3s)-3-methoxy-1-(4-methyl-4H-1,2,4-triazol-3-yl)cyclobutyl)phenyl)-6-(((1-methylcyclobutyl)amino)methyl)-4-(trifluoromethyl)isoindolin-1-one] | 2.9× | 36 nM | 110 nM | 110 nM | 78 nM | 1.4x
CCc1cc(N2Cc3c(cc(CNC4(C)CCC4)cc3C(F)(F)F)C2=O)cc([C@]2(c3nncn3C)C[C@H](OC)C2)c1 [Compound 236, 2-(3-ethyl-5-((1r,3r)-3-methoxy-1-(4-methyl-4H-1,2,4-triazol-3-yl)cyclobutyl)phenyl)-6-(((1-methylcyclobutyl)amino)methyl)-4-(trifluoromethyl)isoindolin-1-one] | 2.5× | 19 nM | 47 nM | 65 nM | 38 nM | 1.7x
CNc1cc(N2Cc3c(cc(CNC4(C)CCC4)cc3C(F)(F)F)C2=O)cc([C@]2(c3nncn3C)C[C@@H](OC)C2)c1 [Compound 238, 2-(3-((1s,3s)-3-methoxy-1-(4-methyl-4H-1,2,4-triazol-3-yl)cyclobutyl)-5-(methylamino)phenyl)-6-(((1-methylcyclobutyl)amino)methyl)-4-(trifluoromethyl)isoindolin-1-one] | 2.6× | 2.2 nM | 5.8 nM | 14 nM | 12 nM | 1.1x
CNc1cc(N2Cc3c(cc(CNC4(C)CCC4)cc3C(F)(F)F)C2=O)cc([C@]2(c3nncn3C)C[C@H](OC)C2)c1 [Compound 239, 2-(3-((1r,3r)-3-methoxy-1-(4-methyl-4H-1,2,4-triazol-3-yl)cyclobutyl)-5-(methylamino)phenyl)-6-(((1-methylcyclobutyl)amino)methyl)-4-(trifluoromethyl)isoindolin-1-one] | 4.4× | 1 nM | 4.4 nM | 13 nM | 13 nM | 1.0x
C=CCNc1cc(N2Cc3c(cc(CNC4(C)CCC4)cc3C(F)(F)F)C2=O)cc([C@]2(c3nncn3C)C[C@@H](OC)C2)c1 [Compound 240, 2-(3-(allylamino)-5-((1s,3s)-3-methoxy-1-(4-methyl-4H-1,2,4-triazol-3-yl)cyclobutyl)phenyl)-6-(((1-methylcyclobutyl)amino)methyl)-4-(trifluoromethyl)isoindolin-1-one] | 12× | 2.3 nM | 27 nM | 51 nM | 14 nM | 3.7x
CO[C@H]1C[C@@](c2cc(OC3COC3)cc(N3Cc4c(cc(CNC5(C)CCC5)cc4C(F)(F)F)C3=O)c2)(c2nncn2C)C1 [Compound 241, 2-(3-((1s,3s)-3-methoxy-1-(4-methyl-4H-1,2,4-triazol-3-yl)cyclobutyl)-5-(oxetan-3-yloxy)phenyl)-6-(((1-methylcyclobutyl)amino)methyl)-4-(trifluoromethyl)isoindolin-1-one] | 8.6× | 34 nM | 270 nM | 530 nM | 130 nM | 4.0x
CO[C@H]1C[C@](c2cc(OC3COC3)cc(N3Cc4c(cc(CNC5(C)CCC5)cc4C(F)(F)F)C3=O)c2)(c2nncn2C)C1 [Compound 242, 2-(3-((1r,3r)-3-methoxy-1-(4-methyl-4H-1,2,4-triazol-3-yl)cyclobutyl)-5-(oxetan-3-yloxy)phenyl)-6-(((1-methylcyclobutyl)amino)methyl)-4-(trifluoromethyl)isoindolin-1-one] | 5.5× | 23 nM | 130 nM | 220 nM | 56 nM | 4.0x
